{
  "source": "paper PMC8151276",
  "about": "“An Integrated Approach toward NanoBRET Tracers for Analysis of GPCR Ligand Engagement” (Molecules, 2021)",
  "type_in_all_cases": "binding",
  "key": {"[1]": {"target": "T1, OPRL1 (Homo sapiens, UniProt P41146)", "T1 construct": "purchased Promega (in-house HiBiT-GPCR construct library, NanoBRET)", "T1 sequence (P41146 whole entry)": "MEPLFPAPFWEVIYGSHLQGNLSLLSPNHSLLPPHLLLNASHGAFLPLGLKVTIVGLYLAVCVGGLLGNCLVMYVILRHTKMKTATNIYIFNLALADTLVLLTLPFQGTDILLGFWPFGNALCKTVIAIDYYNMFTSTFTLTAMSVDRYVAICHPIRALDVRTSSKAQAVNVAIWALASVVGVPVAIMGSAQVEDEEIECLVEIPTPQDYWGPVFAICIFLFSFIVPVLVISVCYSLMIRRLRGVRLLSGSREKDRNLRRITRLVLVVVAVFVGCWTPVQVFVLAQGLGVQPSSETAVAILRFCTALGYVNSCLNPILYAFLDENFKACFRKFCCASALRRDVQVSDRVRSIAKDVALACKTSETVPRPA", "test": "NanoBRET screen HiBiT-OPRL1 in HEK293", "conditions": "OPRL1", "summary_of_the_method": "(§1)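 Tracer binding scored as fold response: BRET with tracer alone divided by BRET with 20 μM competing parent compound, cutoff 1.5. Tracers at 1 μM and 0.1 μM, 1.5 h at RT, on HEK293 transiently expressing HiBiT-tagged receptors at low level; complementation with purified LgBiT and furimazine, luminescence at 450 and 600 nm.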"}, "[2]": {"target": "T2, HTR1D (Homo sapiens, UniProt P28221)", "T2 construct": "purchased Promega (in-house HiBiT-GPCR construct library, NanoBRET)", "T2 sequence (P28221 whole entry)": "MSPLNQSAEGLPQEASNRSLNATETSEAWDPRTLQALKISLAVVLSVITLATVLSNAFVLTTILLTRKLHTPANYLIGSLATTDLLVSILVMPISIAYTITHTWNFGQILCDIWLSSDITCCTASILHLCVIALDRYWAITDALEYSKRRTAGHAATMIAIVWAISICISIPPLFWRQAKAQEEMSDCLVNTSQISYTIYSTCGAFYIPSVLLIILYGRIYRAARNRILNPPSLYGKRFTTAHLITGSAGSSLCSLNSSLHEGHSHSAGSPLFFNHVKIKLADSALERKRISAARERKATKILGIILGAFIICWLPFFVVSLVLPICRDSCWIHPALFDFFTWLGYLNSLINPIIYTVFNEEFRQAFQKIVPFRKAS", "test": "NanoBRET screen HiBiT-HTR1D in HEK293", "conditions": "HTR1D", "summary_of_the_method": "as §1"}, "[3]": {"target": "T3, GRM2 (Homo sapiens, UniProt Q14416)", "T3 construct": "purchased Promega (in-house HiBiT-GPCR construct library, NanoBRET)", "T3 sequence (Q14416 19-872)": "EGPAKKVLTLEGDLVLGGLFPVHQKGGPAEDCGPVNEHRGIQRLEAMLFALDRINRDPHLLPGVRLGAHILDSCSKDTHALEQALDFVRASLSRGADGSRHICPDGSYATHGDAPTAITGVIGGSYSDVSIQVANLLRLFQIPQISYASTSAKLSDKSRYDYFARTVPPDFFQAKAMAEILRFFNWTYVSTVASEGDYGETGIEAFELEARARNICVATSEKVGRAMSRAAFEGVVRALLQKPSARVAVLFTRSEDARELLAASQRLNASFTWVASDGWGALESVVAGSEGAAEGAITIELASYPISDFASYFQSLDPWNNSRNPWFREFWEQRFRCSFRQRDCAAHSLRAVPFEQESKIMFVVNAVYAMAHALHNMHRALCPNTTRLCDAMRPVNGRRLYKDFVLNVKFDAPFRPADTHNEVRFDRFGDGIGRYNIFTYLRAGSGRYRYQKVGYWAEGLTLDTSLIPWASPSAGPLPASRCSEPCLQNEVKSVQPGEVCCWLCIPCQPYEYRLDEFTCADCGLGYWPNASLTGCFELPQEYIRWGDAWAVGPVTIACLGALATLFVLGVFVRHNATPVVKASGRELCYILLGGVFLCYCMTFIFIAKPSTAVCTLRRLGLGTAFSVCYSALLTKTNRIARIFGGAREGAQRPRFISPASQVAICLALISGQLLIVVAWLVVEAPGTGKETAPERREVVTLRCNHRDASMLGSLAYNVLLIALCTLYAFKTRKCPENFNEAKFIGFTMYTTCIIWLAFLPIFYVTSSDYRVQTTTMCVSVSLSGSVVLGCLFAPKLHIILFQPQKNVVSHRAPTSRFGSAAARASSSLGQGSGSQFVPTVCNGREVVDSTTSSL", "test": "NanoBRET screen HiBiT-GRM2 in HEK293", "conditions": "GRM2", "summary_of_the_method": "as §1"}, "[4]": {"target": "T4, CXCR4 (Homo sapiens, UniProt P61073)", "T4 construct": "purchased Promega (in-house HiBiT-GPCR construct library, NanoBRET)", "T4 sequence (P61073 whole entry)": "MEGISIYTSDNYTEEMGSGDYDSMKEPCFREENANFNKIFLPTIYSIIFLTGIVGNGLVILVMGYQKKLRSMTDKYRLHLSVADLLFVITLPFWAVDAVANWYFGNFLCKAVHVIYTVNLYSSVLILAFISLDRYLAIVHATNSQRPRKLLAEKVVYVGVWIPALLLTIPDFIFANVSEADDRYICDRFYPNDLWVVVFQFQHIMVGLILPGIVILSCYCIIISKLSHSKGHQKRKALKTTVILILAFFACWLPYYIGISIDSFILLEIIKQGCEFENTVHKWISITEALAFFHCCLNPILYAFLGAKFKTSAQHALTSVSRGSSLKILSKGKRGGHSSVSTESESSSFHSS", "test": "NanoBRET screen HiBiT-CXCR4 in HEK293", "conditions": "CXCR4", "summary_of_the_method": "as §1"}, "[5]": {"target": "T5, P2RY13 (Homo sapiens, UniProt Q9BPV8)", "T5 construct": "purchased Promega (in-house HiBiT-GPCR construct library, NanoBRET)", "T5 sequence (Q9BPV8 1-354)": "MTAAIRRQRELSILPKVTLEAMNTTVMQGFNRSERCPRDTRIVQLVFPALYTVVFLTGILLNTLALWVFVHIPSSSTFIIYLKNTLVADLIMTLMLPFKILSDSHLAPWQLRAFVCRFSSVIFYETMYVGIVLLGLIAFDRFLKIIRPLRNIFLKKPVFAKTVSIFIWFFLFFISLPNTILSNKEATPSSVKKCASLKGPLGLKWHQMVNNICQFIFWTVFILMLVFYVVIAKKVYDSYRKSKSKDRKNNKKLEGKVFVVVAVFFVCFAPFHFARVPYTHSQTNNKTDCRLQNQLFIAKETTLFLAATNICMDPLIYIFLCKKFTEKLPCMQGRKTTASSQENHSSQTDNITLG", "test": "NanoBRET screen HiBiT-P2RY13 in HEK293", "conditions": "P2RY13", "summary_of_the_method": "as §1"}, "[6]": {"target": "T6, SSTR1 (Homo sapiens, UniProt P30872)", "T6 construct": "purchased Promega (in-house HiBiT-GPCR construct library, NanoBRET)", "T6 sequence (P30872 whole entry)": "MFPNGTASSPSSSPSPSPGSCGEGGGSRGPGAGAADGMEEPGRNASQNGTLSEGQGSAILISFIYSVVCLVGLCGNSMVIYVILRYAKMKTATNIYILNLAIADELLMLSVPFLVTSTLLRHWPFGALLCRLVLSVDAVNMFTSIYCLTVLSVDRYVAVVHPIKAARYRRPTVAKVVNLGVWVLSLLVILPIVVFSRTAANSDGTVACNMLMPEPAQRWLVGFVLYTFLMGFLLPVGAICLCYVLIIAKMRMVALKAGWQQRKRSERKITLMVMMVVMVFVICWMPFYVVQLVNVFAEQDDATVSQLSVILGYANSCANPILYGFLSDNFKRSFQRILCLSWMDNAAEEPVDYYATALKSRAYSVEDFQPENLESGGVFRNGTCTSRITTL", "test": "NanoBRET screen HiBiT-SSTR1 in HEK293", "conditions": "SSTR1", "summary_of_the_method": "as §1"}, "[7]": {"target": "T7, RXFP4 (Homo sapiens, UniProt Q8TDU9)", "T7 construct": "purchased Promega (in-house HiBiT-GPCR construct library, NanoBRET)", "T7 sequence (Q8TDU9 whole entry)": "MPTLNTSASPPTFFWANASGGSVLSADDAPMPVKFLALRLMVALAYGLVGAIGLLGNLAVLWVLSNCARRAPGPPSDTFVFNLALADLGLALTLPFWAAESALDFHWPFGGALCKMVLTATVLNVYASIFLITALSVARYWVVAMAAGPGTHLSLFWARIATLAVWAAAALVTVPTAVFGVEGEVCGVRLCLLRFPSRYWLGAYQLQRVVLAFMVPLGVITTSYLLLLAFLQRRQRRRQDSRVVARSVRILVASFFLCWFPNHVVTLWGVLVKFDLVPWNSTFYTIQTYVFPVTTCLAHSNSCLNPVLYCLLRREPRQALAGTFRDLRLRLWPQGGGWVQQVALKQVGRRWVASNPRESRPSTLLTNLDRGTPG", "test": "NanoBRET screen HiBiT-RXFP4 in HEK293", "conditions": "RXFP4", "summary_of_the_method": "as §1"}, "[8]": {"target": "T8, PTGDR2 (Homo sapiens, UniProt Q9Y5Y4)", "T8 construct": "purchased Promega (in-house HiBiT-GPCR construct library, NanoBRET)", "T8 sequence (Q9Y5Y4 1-395)": "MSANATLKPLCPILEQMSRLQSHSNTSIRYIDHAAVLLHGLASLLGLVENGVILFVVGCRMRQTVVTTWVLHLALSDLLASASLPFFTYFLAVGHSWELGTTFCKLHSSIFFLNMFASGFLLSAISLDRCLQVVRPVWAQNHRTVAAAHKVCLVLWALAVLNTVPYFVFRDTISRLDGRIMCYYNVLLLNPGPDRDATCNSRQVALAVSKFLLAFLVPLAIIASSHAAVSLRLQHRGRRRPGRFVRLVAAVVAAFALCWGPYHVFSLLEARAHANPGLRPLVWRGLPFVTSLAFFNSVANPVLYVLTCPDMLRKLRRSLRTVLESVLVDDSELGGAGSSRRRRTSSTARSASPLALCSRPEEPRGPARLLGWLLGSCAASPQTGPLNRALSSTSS", "test": "NanoBRET screen HiBiT-PTGDR2 in HEK293", "conditions": "PTGDR2", "summary_of_the_method": "as §1"}},
  "data": [
    {"smiles": "CC(C)N(CC[C@H](c1ccccc1)c1cc(CCNC(=O)c2ccc(CNC(=O)CCc3ccc4n3[B-](F)(F)[N+]3=C(c5ccc[nH]5)C=CC3=C4)cc2)ccc1O)C(C)C", "note": "[Tolterodine-BZ-NB590]", "values": [
      {"measurement": "NanoBRET Fold Response", "setting": "[1]; tracer 0.1μM", "result": 0.92},
      {"measurement": "NanoBRET Fold Response", "setting": "[1]; tracer 1μM", "result": 0.88},
      {"measurement": "NanoBRET Fold Response", "setting": "[2]; tracer 0.1μM", "result": 1.27},
      {"measurement": "NanoBRET Fold Response", "setting": "[2]; tracer 1μM", "result": 0.92},
      {"measurement": "NanoBRET Fold Response", "setting": "[3]; tracer 0.1μM", "result": 1.00},
      {"measurement": "NanoBRET Fold Response", "setting": "[3]; tracer 1μM", "result": 0.15},
      {"measurement": "NanoBRET Fold Response", "setting": "[4]; tracer 0.1μM", "result": 0.94},
      {"measurement": "NanoBRET Fold Response", "setting": "[4]; tracer 1μM", "result": 1.03},
      {"measurement": "NanoBRET Fold Response", "setting": "[5]; tracer 0.1μM", "result": 0.89},
      {"measurement": "NanoBRET Fold Response", "setting": "[5]; tracer 1μM", "result": 0.94},
      {"measurement": "NanoBRET Fold Response", "setting": "[6]; tracer 0.1μM", "result": 1.15},
      {"measurement": "NanoBRET Fold Response", "setting": "[6]; tracer 1μM", "result": 1.20},
      {"measurement": "NanoBRET Fold Response", "setting": "[7]; tracer 0.1μM", "result": 1.08},
      {"measurement": "NanoBRET Fold Response", "setting": "[7]; tracer 1μM", "result": 0.98},
      {"measurement": "NanoBRET Fold Response", "setting": "[8]; tracer 0.1μM", "result": 0.98},
      {"measurement": "NanoBRET Fold Response", "setting": "[8]; tracer 1μM", "result": 0.96}
    ]},
    {"smiles": "CCCn1c(=O)c2[nH]c(-c3ccc(OCC(=O)NCCNC(=O)CCOCCNC(=O)c4ccc(CNC(=O)CCc5ccc6n5[B-](F)(F)[N+]5=C(c7ccc[nH]7)C=CC5=C6)cc4)cc3)nc2n(CCC)c1=O", "note": "[XAC-3-NB590]", "values": [
      {"measurement": "NanoBRET Fold Response", "setting": "[1]; tracer 0.1μM", "result": 1.12},
      {"measurement": "NanoBRET Fold Response", "setting": "[1]; tracer 1μM", "result": 0.72},
      {"measurement": "NanoBRET Fold Response", "setting": "[2]; tracer 0.1μM", "result": 0.47},
      {"measurement": "NanoBRET Fold Response", "setting": "[2]; tracer 1μM", "result": 0.65},
      {"measurement": "NanoBRET Fold Response", "setting": "[3]; tracer 0.1μM", "result": 1.01},
      {"measurement": "NanoBRET Fold Response", "setting": "[3]; tracer 1μM", "result": 1.03},
      {"measurement": "NanoBRET Fold Response", "setting": "[4]; tracer 0.1μM", "result": 0.90},
      {"measurement": "NanoBRET Fold Response", "setting": "[4]; tracer 1μM", "result": 0.92},
      {"measurement": "NanoBRET Fold Response", "setting": "[5]; tracer 0.1μM", "result": 1.00},
      {"measurement": "NanoBRET Fold Response", "setting": "[5]; tracer 1μM", "result": 1.03},
      {"measurement": "NanoBRET Fold Response", "setting": "[6]; tracer 0.1μM", "result": 0.98},
      {"measurement": "NanoBRET Fold Response", "setting": "[6]; tracer 1μM", "result": 1.05},
      {"measurement": "NanoBRET Fold Response", "setting": "[7]; tracer 0.1μM", "result": 1.00},
      {"measurement": "NanoBRET Fold Response", "setting": "[7]; tracer 1μM", "result": 0.96},
      {"measurement": "NanoBRET Fold Response", "setting": "[8]; tracer 0.1μM", "result": 1.00},
      {"measurement": "NanoBRET Fold Response", "setting": "[8]; tracer 1μM", "result": 1.06}
    ]}
  ]
}
